A word on the IC50: it is the concentration needed to halve the response being measured.

Where only a bound is given, the exact number is not on record here.

Assay [1] concerns the target T1, Mdm2/p53 binding (GST-Mdm2 / His-p53) (Homo sapiens, UniProt Q00987, L33E).
T1 construct: Mdm2 partial protein having Mdm2 amino acids at positions 25 to 108
Put plainly: Mdm2/p53 binding assay (HTRF, His-p53 and GST-Mdm2). The conditions noted are these: His-p53 (aa 1-132) and GST-Mdm2 (aa 25-108, L33E) 6.25 nM each; 25°C, 1 hour; values given as ranges. In a few lines:
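Binding was detected by HTRF (ex 320 nm, em 620/665 nm) after 1 h at 25 °C, using Eu-cryptate anti-GST and XL665 anti-His antibodies. The protein pair was GST-Mdm2 (residues 25–108, L33E) with His-p53 (residues 1–132), each 6.25 nM in the protein dilution. T/C used no-compound control and no-p53 background, and IC50 came from sigmoid fitting.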

For assay [2], the system named is human lung cancer-derived cell line NCI-H460 having wild-type p53. As to the kind of experiment: Cell growth inhibition assay (MTT). It counts as cell-based. The conditions noted are these: 72 h, NCI-H460 cells, 3 days culture, values given as ranges, read-out: 50% growth inhibition concentration (GI50 value). The gist of the method:
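NCI-H460 cells (wild-type p53) seeded at 500 cells/well in RPMI1640 with 10% FBS, then treated the next day and grown 3 days at 37 °C. MTT read-out at OD 540 nm (660 nm reference), taken at dosing and at day 3. GI50 derived from T/C (%) dose-response curves.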

T1 sequence (Q00987 25-108 L33E): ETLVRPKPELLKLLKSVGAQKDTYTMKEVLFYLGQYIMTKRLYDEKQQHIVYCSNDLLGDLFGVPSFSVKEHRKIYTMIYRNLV

`CC1(C)CCC2(CC1)N[C@@H](C(=O)N[C@H]1CC[C@H](c3nnc[nH]3)CC1)[C@H](c1ccnc(Cl)c1F)[C@]21C(=O)Nc2cc(Cl)ccc21` (relative stereo) [Example 32, (3′R, 4′S,5′R)-6″-chloro-4′-(2-chloro-3-fluoropyridin-4-yl)-4,4-dimethyl-2″-oxo-N-[trans-4-(4H-1,2,4-triazol-3-yl)cyclohexyl]-1″,2″-dihydrodispiro[cyclohexane-1,2′-pyrrolidine-3′,3″-indole]-5′-carboxamide] displayed an IC50 in assay [1] of 50 to 100 nM. In addition, the GI50 in assay [2] lay in the range of 100 to 500 nM.
In the case of `Cc1nnc([C@@H]2CC[C@@H](NC(=O)[C@@H]3NC4(CCC(C)(C)CC4)[C@@]4(C(=O)Nc5cc(Cl)ccc54)[C@H]3c3ccnc(Cl)c3F)CO2)o1` [Example 156], the concentration for half-maximal inhibition (IC50) in assay [1] was in the range of 1 to 50 nM. Further, in assay [2], the GI50 was below 100 nM.
Taken in the same sequence, the figures for `CC1(C)CCC2(CC1)N[C@@H](C(=O)N[C@H]1C[C@H](C(C)(C)O)C1)[C@H](c1ccnc(Cl)c1F)[C@]21C(=O)Nc2cc(Cl)ccc21` [Example 154, (3′R, 4′S,5′R)-6′-chloro-4′-(2-chloro-3-fluoropyridin-4-yl)-N-[trans-3-(2-hydroxypropan-2-yl)cyclobutyl]-4,4-dimethyl-2″-oxo-1″,2″-dihydrodispiro[cyclohexane-1,2′-pyrrolidine-3′,3″-indole]-5′-carboxamide] were 50 to 100 nM and 100 to 500 nM.
On to `CC1(C)CCC2(CC1)N[C@@H](C(=O)N[C@@H]1CC[C@@H](CO)OC1)[C@H](c1ccnc(Cl)c1F)[C@]21C(=O)Nc2cc(Cl)c(F)cc21` [Example 23, (3′R, 4′S,5′R)-6″-chloro-4′-(2-chloro-3-fluoropyridin-4-yl)-5″-fluoro-N-[(3R,6S)-6-(hydroxymethyl)tetrahydro-2H-pyran-3-yl]-4,4-dimethyl-2″-oxo-1″,2″-dihydrodispiro[cyclohexane-1,2′-pyrrolidine-3′,3″-indole]-5′-carboxamide], for which, in assay [1], the IC50 was in the range of 1 to 50 nM. Also, the GI50 in assay [2] lay within 100 to 500 nM.
Taken in the same sequence, the figures for `CC1(C)CCC2(CC1)N[C@@H](C(=O)N[C@H]1CC[C@H](c3n[nH]c(=O)o3)CC1)[C@H](c1ccnc(Cl)c1)[C@]21C(=O)Nc2cc(Cl)ccc21` [Example 51, (3′R, 4′R, 5′R)-6″-chloro-4′=(2-chloropyridin-4-yl)-4,4-dimethyl-2″-oxo-N-[trans-4-(5-oxo-4,5-dihydro-1,3,4-oxadiazol-2-yl)cyclohexyl]-1″,2″-dihydrodispiro[cyclohexane-1,2′-pyrrolidine-3′,3″-indole]-5′-carboxamide] were 50 to 100 nM and 100 to 500 nM.
The compound `CC1(C)CCC2(CC1)N[C@@H](C(=O)N[C@H]1CC[C@H](c3n[nH]c(=O)o3)CC1)[C@H](c1ccnc(Cl)c1F)[C@]21C(=O)Nc2cc(Cl)ccc21` [Example 35, (3′R, 4′S, S′R)-6″-chloro-4′-(2-chloro-3-fluoropyridin-4-yl)-4,4-dimethyl-2″-oxo-N-[trans-4-(5-oxo-4,5-dihydro-1,3,4-oxadiazol-2-yl)cyclohexyl]-1″,2″-dihydrodispiro[cyclohexane-1,2′-pyrrolidine-3′,3″-indole]-5′-carboxamide] showed a 50% inhibitory concentration (IC50) in assay [1] of 50 to 100 nM. Further, the GI50 in assay [2] is below 100 nM.
The like results for `CC1(C)CCC2(CC1)N[C@@H](C(=O)N[C@H]1CC[C@H](CO)CC1)[C@H](c1cccc(Cl)c1F)[C@]21C(=O)Nc2nc(Cl)ccc21` (relative stereo) [Example 2, (3′R, 4′S,5′R)-6″-chloro-4′-(3-chloro-2-fluorophenyl)-N-[trans-4-(hydroxymethyl)cyclohexyl]-4,4-dimethyl-2″-oxo-1″,2″-dihydrodispiro[cyclohexane-1,2′-pyrrolidine-3′,3″-pyrrolo[2,3-b]pyridine]-5′-carboxamide] were, in that order, 50 to 100 nM and 1000 to 5000 nM.
As for `CC1(C)CCC2(CC1)N[C@@H](C(=O)N[C@@H]1CC[C@@H](c3nnco3)OC1)[C@H](c1ccnc(Cl)c1)[C@]21C(=O)Nc2cc(Cl)ccc21` [Example 53, (3′R, 4′R, 5′R)-6″-chloro-4′-(2-chloropyridin-4-yl)-4,4-dimethyl-N-[(3R,6S)-6-(1,3,4-oxadiazol-2-yl)tetrahydro-2-pyran-3-yl]-2″-oxo-1″,2″-dihydrodispiro[cyclohexane-1,2′-pyrrolidine-3′,3″-indole]-5′-carboxamide], the IC50 in assay [1] was in the range of 1 to 50 nM. Also, in assay [2], the GI50 fell in the range of 500 to 1000 nM.
In assay [1], `O=C(N[C@H]1CC[C@H](O)CC1)[C@@H]1NC2(CCCCC2)[C@@]2(C(=O)Nc3cc(Cl)ccc32)[C@H]1c1cccc(Cl)c1F` (relative stereo) [Example 4, (3′R, 4′S,5′R)-6″-chloro-4′-(3-chloro-2-fluorophenyl)-N-(trans-4-hydroxycyclohexyl)-2″-oxo-1″,2″-dihydrodispiro[cyclohexane-1,2′-pyrrolidine-3′,3″-indole]-5′-carboxamide] showed a half-inhibitory concentration (IC50) of 100 to 500 nM. Also, the GI50 in assay [2] lay within 1000 to 5000 nM.
In assay [1], `C[C@@H](O)[C@@H]1CC[C@@H](NC(=O)[C@@H]2NC3(CCC(C)(C)CC3)[C@@]3(C(=O)Nc4cc(Cl)ccc43)[C@H]2c2cccc(Cl)c2F)CO1` [Example 182, (3′R, 4′S,5′R)-6″-chloro-4′-(3-chloro-2-fluorophenyl)-N-{(3S,6S)-6-[(1R)-1-hydroxyethyl]tetrahydro-2H-pyran-3-yl}-4,4-dimethyl-2′-oxo-1″,2″-dihydrodispiro[cyclohexane-1,2′-pyrrolidine-3′,3″-indole]-5-carboxamide] registered an IC50 of 1 to 50 nM. Besides, in assay [2], the GI50 is below 100 nM.
In assay [1], `CCN(CC)C(=O)[C@@H]1CC[C@@H](NC(=O)[C@@H]2NC3(CCC(C)(C)CC3)[C@@]3(C(=O)Nc4cc(Cl)ccc43)[C@H]2c2ccnc(Cl)c2F)CO1` [Example 116, (3′R, 4′S,5′R)-6″-chloro-4′-(2-chloro-3-fluoropyridin-4-yl)-N-[(3R,6S)-6-(diethylcarbamoyl)tetrahydro-2H-pyran-3-yl]-4,4-dimethyl-2″-oxo-1″,2″-dihydrodispiro[cyclohexane-1,2′-pyrrolidine-3′,3″-indole]-5′-carboxamide] yielded a concentration for half-maximal inhibition (IC50) of 1 to 50 nM. In assay [2], the GI50 is below 100 nM.
The like results for `CC1(C)CCC2(CC1)N[C@@H](C(=O)N[C@@H]1CC[C@@H](CO)OC1)[C@H](c1cccc(Cl)c1F)[C@]21C(=O)Nc2nc(Cl)ccc21` [Example 3, (3′R, 4′S,5′R)-6″-chloro-4′-(3-chloro-2-fluorophenyl)-N-[(3R,6S)-6-(hydroxymethyl)tetrahydro-2H-pyran-3-yl]-4,4-dimethyl-2″-oxo-1″,2″-dihydrodispiro[cyclohexane-1,2′-pyrrolidine-3′,3″-pyrrolo[2,3-b]pyridine]-5′-carboxamide] were, in that order, 1 to 50 nM and 500 to 1000 nM.
`CC1(C)CCC2(CC1)N[C@@H](C(=O)N[C@@H]1CC[C@@H](C(=O)N3CC(O)C3)OC1)[C@H](c1ccnc(Cl)c1F)[C@]21C(=O)Nc2cc(Cl)ccc21` [Example 107, (3′R, 4′S,5′R)-6″-chloro-4′-(2-chloro-3-fluoropyridin-4-yl)-N-{(3R,6S)-6-[(3-hydroxyazetidin-1-yl)carbonyl]tetrahydro-2H-pyran-3-yl}-4,4-dimethyl-2″-oxo-1″,2″-dihydrodispiro[cyclohexane-1,2′-pyrrolidine-3′,3″-indole]-5′-carboxamide] had an IC50 in assay [1] of 1 to 50 nM. Further, the GI50 in assay [2] lay within 100 to 500 nM.
For the compound `CC1(C)CCC2(CC1)N[C@@H](C(=O)N[C@H]1CO[C@H](CO)[C@@H](O)C1)[C@H](c1ccnc(Cl)c1F)[C@]21C(=O)Nc2cc(Cl)ccc21` [Example 29], in assay [1], the IC50 lay in the range of 1 to 50 nM. Further, the GI50 in assay [2] is 1000 to 5000 nM.
Compound `CC(O)[C@@H]1CC[C@@H](NC(=O)[C@@H]2NC3(CCC(C)(C)CC3)[C@@]3(C(=O)Nc4cc(Cl)ccc43)[C@H]2c2ccnc(Cl)c2F)CO1` (single isomer, unassigned) [Example 93] returned an IC50 in assay [1] of 50 to 100 nM. Also, in assay [2], the GI50 lay in the range of 100 to 500 nM.
Regarding `CCNC(=O)[C@@H]1CC[C@@H](NC(=O)[C@@H]2NC3(CCC(C)(C)CC3)[C@@]3(C(=O)Nc4cc(Cl)ccc43)[C@H]2c2ccnc(Cl)c2F)CO1` [Example 88, (3′R, 4′S,5′R)-6″-chloro-4′-(2-chloro-3-fluoropyridin-4-yl)-N-[(3R,6S)-6-(ethylcarbamoyl)tetrahydro-2H-pyran-3-yl]-4,4-dimethyl-2″-oxo-1″,2″-dihydrodispiro[cyclohexane-1,2′-pyrrolidine-3′,3″-indole]-5′-carboxamide], the 50% inhibitory concentration (IC50) in assay [1] was in the range of 50 to 100 nM. For the same compound, the GI50 in assay [2] fell in the range of 100 to 500 nM.
The like results for `CC1(C)CCC2(CC1)N[C@@H](C(=O)N[C@@H]1CC[C@@H](C(N)=O)OC1)[C@H](c1cccc(Cl)c1F)[C@]21C(=O)Nc2cc(Cl)ncc21` [Example 185, (3′R, 4′S,5′R)—N-[(3R,6S)-6-carbamoyltetrahydro-2H-pyran-3-yl]-6″-chloro-4′-(3-chloro-2-fluorophenyl)-4,4-dimethyl-2″-oxo-1″,2″-dihydrodispiro[cyclohexane-1,2-pyrrolidine-3′,3″-pyrrolo[3,2-c]pyridine]-5′-carboxamide] were, in that order, 1 to 50 nM and 100 to 500 nM.

The values are drawn from patent US12545685B2 (Daiichi Sankyo Company, Limited, priority 2011, dated 2026).
